# Reference: patent publication US20060063794A1, “Method of attenuating graft rejection” (Fujisawa Pharmaceutical Co., Ltd., priority 2004, published 2006)
# “Also recorded” adds a separate entry of the source.
# Tests used:
# [1] = test system: human kidney transplant recipients; assay: Multi-center, randomized, double-blind trial of FK778/Tacrolimus/steroids: acute rejection and graft survival; format: in vivo
# Protocol: Patients were randomised to a 3-month treatment regimen with high-level FK778/Tacrolimus/corticosteroid (arm 1), low-level FK778/Tacrolimus/corticosteroid (arm 2), or placebo/Tacrolimus/corticosteroid (arm 3). FK778 and placebo were administered in a double-blind manner. Patients in arm 1 received two doses of 600 mg/day and continued on 150 mg/day. Patients in arm 2 received one dose of 600 mg/day and continued on 75 mg/day. Subsequent doses were adjusted to maintain trough levels of FK778 in the range of 100-200 μg/mL (arm 1) and 10-100 μg/mL (arm 2). Trough levels of FK778 were centrally determined. Doses of FK778 were adjusted according to the recommendations of an independent panel.
# Treatment of adults of both genders was studied in a multi-center, randomized, double-blind trial. Three groups were studied. Group H was treated with high dose FK778/tarcolimus/steroids; Group L was treated with low dose FK778/tarcolimus/steroids; and Group P was treated with placebo/Tacrolimus/steroids. Tacrolimus was given as an initial dose of 0.2 mg/kg per os divided into two equal doses, one pre-operatively and one post-operatively. Subsequent doses were adjusted to reach target Tacrolimus whole blood trough concentrations of 10-20 ng/mL on Days 0-30, and 5-15 ng/mL on Days 31-84. Methylprednisolone was perioperatively administered at 1000 mg i.v. or less and 125 mg on Day 1. A prednisolone equivalent was given orally at 20 mg from Day 2-14, at 15 mg on Day 15-28, at 10 mg from Day 29-42 and 5 mg from Day 43-84. Oral tablets of FK778/placebo were administered in a double-blind manner.
# (§1) Patients in group H received loading doses of 600 mg/day on Day 1 and 2 and continued on 150 mg/day. This was the maximum permitted daily dose of FK778. Patients in group L received 600 mg/day only on Day 1 and continued on 75 mg/day. Dose adaptations were to be performed from day 7 onwards. Subsequent doses were adjusted to maintain plasma trough levels of FK778 in the target ranges of 100-200 μg/mL (H) and 10-100 μg/mL (L).
# All visits and time points were calculated from the day of reperfusion (Day 0). […] Periods of dialysis dependence and hospitalization were recorded, as were details of medication. In case of a clinically apparent rejection, a renal graft biopsy was taken and classified by the local histopathologist according to the Banff 97 criteria (Racusen et al., Kidney Int. 55: 713-723 (1999)). Type I, II and III acute rejections (AR) were reported. AR was classified as corticosteroid-sensitive or corticosteroid-resistant. An independent histopathologist who was blinded to treatment and local biopsy readings performed the central biopsy review.
# The primary efficacy endpoint was the incidence of AR proven by local biopsy over the first 12 weeks. […] For being defined as a patient whose target level was achieved, the average trough level of this patient had to be within the target range at week 2. On a continuous basis safety was assessed by patient and graft survival, adverse event monitoring, routine laboratory evaluations and vital signs. Treatment emergent adverse events were coded according to the MedDRA dictionary (version 5.0).
# In this example, all tests were performed one-sided and pair-wise without alpha-adjustment for multiple testing using a 10% significance level. Statistical power was calculated for the analysis of the primary endpoint. A difference of 20% between groups in the incidence of biopsy-proven AR was considered a clinically meaningful difference. A reasonable expectation for the estimated rate of patients experiencing biopsy-proven AR in the Tacrolimus/steroid arm was 35%. Allowing for a dropout rate of 11%, it was estimated that with the outlined statistical methods the sample size of 45 evaluable patients per treatment arm was large enough to achieve a power of ≧80%. Thus, it was planned to enroll 135 patients using a 1:1:1 randomisation. The primary endpoint was analysed using chi-squared tests. […]
# [2] = Same trial: FK778 plasma trough levels; format: in vivo, human
# Protocol: as §1
# The assay of FK778 trough concentrations were centrally performed in an independent laboratory and an independent unblinded pharmacokinetic (PK)-panel (Covance, UK) used the plasma FK778 levels to make dose adjustments when necessary. In addition, dummy adjustments in the placebo arm were performed. Concentrations were determined initially every other day, from day 14-42 weekly, and afterwards every other week.
# rat cardiac allografts = conditions: rats, cited from earlier work
# [3] = test system: chronic kidney allograft rejection; conditions: cited from earlier work
# [4] = test system: B-cell proliferation; T cells; conditions: in vitro, FK778 in combination with Tacrolimus (FK506); cited from earlier work
# renal allograft = conditions: rats, concomitant 14-day regimen FK778 (10/mg/kg/day) and Tacrolimus (1 mg/k/day); cited from earlier work
# [5] = All patients, High level FK778 (group H)
# [6] = All patients, Low level FK778 (group L)
smiles,measurement,setting,value
"C#CCC/C(O)=C(\C#N)C(=O)Nc1ccc(C(F)(F)F)cc1 [FK778, (2Z)-2-cyano-3-hydroxy-N-[4-(trifluromethyl)phenyl]-2-hepten-6-ynamide]",Corticosteroid-resistant AR (%),[1]; [5],(8.2) %
same,"Corticosteroid-resistant AR, number of patients",[1]; [5],4
same,Corticosteroid-sensitive AR (%),[1]; [5],(22.4) %
same,"Corticosteroid-sensitive AR, number of patients",[1]; [5],11
same,"Overall AR proven by central biopsy, number of patients","[1]; All patients, High level FK778 (group H), N=49",13
same,"Overall AR proven by local biopsy, number of patients","[1]; All patients, High level FK778 (group H), N=49, first 12 weeks",14
same,Corticosteroid-resistant AR (%),[1]; [6],(11.1) %
same,"Corticosteroid-resistant AR, number of patients",[1]; [6],6
same,Corticosteroid-sensitive AR (%),[1]; [6],(14.8) %
same,"Corticosteroid-sensitive AR, number of patients",[1]; [6],8
same,"Overall AR proven by central biopsy, number of patients","[1]; All patients, Low level FK778 (group L), N=54",14
same,"Overall AR proven by local biopsy, number of patients","[1]; All patients, Low level FK778 (group L), N=54, first 12 weeks",14
same,"Overall AR proven by central biopsy, number of patients","[1]; Patients reaching target levels within second week, High level FK778 (subgroup H), N=26",2
same,"Overall AR proven by central biopsy, number of patients","[1]; Patients reaching target levels within second week, Low level FK778 (subgroup L), N=48",13
same,"Kaplan-Meier estimated rate of patients free from centrally determined biopsy proven acute rejection, higher compared with placebo","[1]; after 12 weeks, high and low level FK778",12.1 % percentage points
same,Graft survival at month 4,"[1]; arm 1, high-level FK778/Tacrolimus/corticosteroid, n=49",89.7%
same,Graft survival at month 4,"[1]; arm 2, low-level FK778/Tacrolimus/corticosteroid, n=54",88.8%
same,Difference in incidence of AR by central biopsy review versus placebo,[1]; group H vs. P,12.6%
same,Difference in incidence of AR proven by local biopsy versus placebo,[1]; group H vs. P,6.2%
same,Graft survival estimate (Kaplan-Meier method) at Week 16,"[1]; group H, high level FK778",89.7%
same,Difference in incidence of AR by central biopsy review versus placebo,[1]; group L vs. P,13.2%
same,Difference in incidence of AR proven by local biopsy versus placebo,[1]; group L vs. P,8.9%
same,Graft survival estimate (Kaplan-Meier method) at Week 16,"[1]; group L, low level FK778",88.8%
same,Maximum FK778 plasma trough level,"[2]; group H, Day 3",142.4 µg/mL
same,Median FK778 plasma trough level,"[2]; group H, Day 3",84.34 µg/mL
same,Mean FK778 plasma trough level,"[2]; group H, Day 3, after loading doses 600 mg/day on Day 1 and 2",86.97 ± 26.23 µg/mL
same,Mean FK778 plasma trough level,"[2]; group H, Day 7",93.58 µg/mL
same,Mean FK778 plasma trough level,"[2]; group H, Day 28",175.66 µg/mL
same,Median FK778 plasma trough level,"[2]; group L, Day 2",41.35 µg/mL
same,Mean FK778 plasma trough level,"[2]; group L, Day 2, after loading dose 600 mg/day on Day 1",38.30 ± 21.14 µg/mL
same,Mean FK778 plasma trough level,"[2]; group L, Day 11",31.53 ± 21.26 µg/mL
same,Median FK778 plasma trough level,"[2]; group L, Day 11",28.35 µg/mL
same,Mean FK778 plasma trough level,"[2]; group L, Day 42",62.36 ± 27.60 µg/mL
same,Median FK778 plasma trough level,"[2]; group L, Day 42",59.36 µg/mL
same,Prolongation of graft survival,rat cardiac allografts; 20 mg/kg for ten days,about two
same,Median graft survival,rat cardiac allografts; MNA 715 (20/mg/kg) combined with Tacrolimus (2.4 mg/kg) for ten days,19 days
same,Optimal dose,"[3]; rat, given for ten days following transplantation",10 mg/kg/day
same,Effect on chronic kidney allograft rejection,[3]; rats,prevented chronic kidney allograft rejection; also recorded: reduced functional and histologic chronic kidney allograft rejection
same,Effect in T cells,[4],antagonistic tendency
same,Effect on B-cell proliferation,[4],synergistic inhibition of B-cell proliferation
same,Effect on renal allograft survival,renal allograft,synergistically prolonged renal allograft survival
